Measurements as given in patent US9393226B2, “Use of osthole for treating focal segmental glomerulosclerosis” (National Defense Medical Center, priority 2014, dated 2016).

Experiments:
Assay type in all cases: in vivo, BALB/c mice
[1] = tested on: caspase-3, caspase-8 and caspase-9; experiment: Western blot analysis of caspase-3, caspase-8 and caspase-9 in kidney tissues in mouse FSGS model; conditions: kidney tissue
Procedure: Experiments were performed on 8-week-old female BALB/c mice. The mice were separated into 3 groups at 8-weeks old. One of the groups were injected intravenously with normal saline to be used as normal controls, where the pathological control group and the osthole treated group were intravenously injected with a single dose of adriamycin (0.1 mg/10 g body weight) to induce FSGS, wherein the osthole treated group is intraperitoneally injected with osthole at a daily dose of 30 mg/kg body weight starting from 6 hours before FSGS induction by adriamycin. After intravenous injection of adriamycin, osthole was continuously given to the osthole treated group through intraperitoneal injection with a daily dose of 30 mg/kg body weight until they were sacrificed 28 days after FSGS induction. The pathological control group were given vehicle by intraperitoneal injection in the same fashion. Urine samples were collected in metabolic cages on days 3, 7, 14, and 21. Mice were sacrificed at day 7 or 28 post disease induction. Renal cortical tissues, spleen and serum were collected and stored properly for further analysis. Cytoplasmic and nuclear proteins were extracted from renal tissues using a Nuclear Extract Kit (Active Motif, Tokyo, Japan) according to the manufacturer's instructions. Protein extract was separated by electrophoresis and blotted. Target proteins were detected by Western blot analysis using primary antibodies against mouse Nrf2 (Santa Cruz), COX-2 (Santa Cruz), caspase-3 (Cell Signaling Technology, MA, USA), or caspase-9 (Cell Signaling Technology, MA, USA). Antibodies against histone H3 (Cell Signaling, CO, USA) or β-actin (Santa Cruz) were used as internal controls for the nuclear and cytosolic target proteins, respectively. Lastly, secondary antibodies were added and their signals were detected by chemiluminescence.

[2] = tested on: adriamycin induced FSGS mice; experiment: F4/80 immunostaining of monocyte/macrophage infiltration in kidney tissues in mouse FSGS model; conditions: osthole 30 mg/kg daily intraperitoneal; 28th day; FIG. 7
Procedure: (§1) Experiments were performed on 8-week-old female BALB/c mice. The mice were separated into 3 groups at 8-weeks old. One of the groups were injected intravenously with normal saline to be used as normal controls, where the pathological control group and the osthole treated group were intravenously injected with a single dose of adriamycin (0.1 mg/10 g body weight) to induce FSGS, wherein the osthole treated group is intraperitoneally injected with osthole at a daily dose of 30 mg/kg body weight starting from 6 hours before FSGS induction by adriamycin. After intravenous injection of adriamycin, osthole was continuously given to the osthole treated group through intraperitoneal injection with a daily dose of 30 mg/kg body weight until they were sacrificed 28 days after FSGS induction. The pathological control group were given vehicle by intraperitoneal injection in the same fashion. Urine samples were collected in metabolic cages on days 3, 7, 14, and 21. Mice were sacrificed at day 7 or 28 post disease induction. Renal cortical tissues, spleen and serum were collected and stored properly for further analysis. In addition, immunohistochemistry was also performed. […] A quantitative image analysis software Pax-it; […], Villa Park, Ill., USA) was used to analyze the staining results.

[3] = tested on: Nrf2 pathway; experiment: Anti-oxidative signaling pathway in kidney tissues (Nrf2 Western blot, HO-1 ELISA, GPx activity) in mouse FSGS model; conditions: kidney tissue, osthole 30 mg/kg daily intraperitoneal, FIG. 6
Procedure: (§2) Experiments were performed on 8-week-old female BALB/c mice. The mice were separated into 3 groups at 8-weeks old. One of the groups were injected intravenously with normal saline to be used as normal controls, where the pathological control group and the osthole treated group were intravenously injected with a single dose of adriamycin (0.1 mg/10 g body weight) to induce FSGS, wherein the osthole treated group is intraperitoneally injected with osthole at a daily dose of 30 mg/kg body weight starting from 6 hours before FSGS induction by adriamycin. After intravenous injection of adriamycin, osthole was continuously given to the osthole treated group through intraperitoneal injection with a daily dose of 30 mg/kg body weight until they were sacrificed 28 days after FSGS induction. The pathological control group were given vehicle by intraperitoneal injection in the same fashion. Urine samples were collected in metabolic cages on days 3, 7, 14, and 21. Mice were sacrificed at day 7 or 28 post disease induction. Renal cortical tissues, spleen and serum were collected and stored properly for further analysis.
Cytoplasmic and nuclear proteins were extracted from renal tissues using a Nuclear Extract Kit (Active Motif, Tokyo, Japan) according to the manufacturer's instructions. Protein extract was separated by electrophoresis and blotted. Target proteins were detected by Western blot analysis using primary antibodies against mouse Nrf2 (Santa Cruz), COX-2 (Santa Cruz), caspase-3 (Cell Signaling Technology, MA, USA), or caspase-9 (Cell Signaling Technology, MA, USA). […] Lastly, secondary antibodies were added and their signals were detected by chemiluminescence.
(§3) Serum PEG2 and renal HO-1 levels in mice were determined by enzyme linked immunosorbent assay according to the manufacturer's (R&D, U.S.A., Active Motif) instructions.
GPx activity in renal tissues was measured using a commercial glutathione peroxidase assay kit (Cayman, Mich., USA) according to the manufacturer's instructions. […]

[4] = tested on: COX-2 and PGE2; experiment: Renal COX-2 (Western blot) and serum PGE2 (ELISA) in mouse FSGS model; conditions: osthole 30 mg/kg daily intraperitoneal, 28th day
Procedure: Experiments were performed on 8-week-old female BALB/c mice. The mice were separated into 3 groups at 8-weeks old. One of the groups were injected intravenously with normal saline to be used as normal controls, where the pathological control group and the osthole treated group were intravenously injected with a single dose of adriamycin (0.1 mg/10 g body weight) to induce FSGS, wherein the osthole treated group is intraperitoneally injected with osthole at a daily dose of 30 mg/kg body weight starting from 6 hours before FSGS induction by adriamycin. […]
Cytoplasmic and nuclear proteins were extracted from renal tissues using a Nuclear Extract Kit (Active Motif, Tokyo, Japan) according to the manufacturer's instructions. […] Target proteins were detected by Western blot analysis using primary antibodies against mouse Nrf2 (Santa Cruz), COX-2 (Santa Cruz), caspase-3 (Cell Signaling Technology, MA, USA), or caspase-9 (Cell Signaling Technology, MA, USA). […] Lastly, secondary antibodies were added and their signals were detected by chemiluminescence.
as §3

[5] = tested on: adriamycin induced FSGS mice; experiment: Evaluation of renal fibrosis (collagen IV IHC, Sirius red staining) in mouse FSGS model; conditions: osthole 30 mg/kg daily intraperitoneal
Procedure: as §1

[6] = tested on: adriamycin induced FSGS mice; experiment: Analysis of urine protein and renal function in mouse FSGS model; conditions: osthole 30 mg/kg daily intraperitoneal, vs pathological control group
Procedure: as §2, with “analysis. Mice urine samples were collected by metabolic cages. Proteinuria was first tested with test paper, following the measurement of protein concentration with BCA Protein Assay Kit (PIERCE), where the urinary protein index was illustrated by 24-hour proteinuria (urinary protein concentration/urinary creatinine concentration). In addition, blood was collected through the eye socket, after separation, serum specimen was obtained, which was absorbed into Fuji Ori-Chem Slide and measured by machine (Fuji Photo Film Co., Tokyo, Japan) to read the data.” for “analysis.”

[7] = tested on: ROS (superoxide anion); experiment: Reactive oxygen species (ROS) determination in mouse FSGS model; conditions: osthole 30 mg/kg daily intraperitoneal, 28th day
Procedure: as §2, with “[…] Lucigenin was used to react with the ROS in urine, and detected with Hidex microplate luminometer (Finland), the results” for “Mice”, “represented as reactive luminescence units (RLU) per 15 min per milligram dry weight (i.e., RLU/15 min/mg dry weight). ROS in kidney tissues were detected with dihydroethidium (DHE),” for “sacrificed at day 7 or 28 post disease induction. Renal cortical tissues, spleen”, “quantitation was done by determining the ratio of signal positive nucleus/total nucleus in each kidney trans-section.” for “serum were collected and stored properly for further analysis.”

[8] = tested on: adriamycin induced FSGS mice; experiment: TUNEL measurement of apoptosis in kidney tissues in mouse FSGS model; conditions: osthole 30 mg/kg daily intraperitoneal; 28th day; FIG. 10
Procedure: as §2, with “analysis. TUNEL (Terminal deoxynucleotidyl transferase dUTP nick end labeling) was used for the detection of apoptosis. Kidney sections were prepared by fixing with formalin and embedded in paraffin. […]” for “analysis.”

[9] = tested on: NF-κB p65; experiment: NF-κB p65 immunostaining in kidney tissues in mouse FSGS model; conditions: osthole 30 mg/kg daily intraperitoneal; 28th day; FIG. 8
Procedure: as §1

[10] = tested on: adriamycin induced FSGS mice; experiment: Pathologic evaluation of kidney sections (H&E) in mouse FSGS model; conditions: osthole 30 mg/kg daily intraperitoneal; 7th and 28th day; FIG. 2
Procedure: as §2, with “analysis. […] Renal pathology was examined under optical microscope and renal lesions was scored. or EPHLs and sclerosis, at least 50 glomeruli in sections were examined for each mouse.” for “analysis.”

[11] = osthole 30 mg/kg daily intraperitoneal, vs pathological control group, FIG. 11

With `COc1ccc2ccc(=O)oc2c1CC=C(C)C` [osthole] the “expression level of caspase-8” value ([1]; data not shown) was “did not show significant difference”, the “caspase-3 in activated state (p17 fragment)” value [1, 11] was “suppressed significantly” and the “caspase-9 in activated state (p37 fragment)” value [1, 11] was “suppressed significantly”. The “monocyte/macrophage infiltration (F4/80) in kidney tissues” value [2] was “significantly reduced infiltration”, the GPx activity [3] was “significantly increase HO-1 expression and GPx activity” and the HO-1 expression [3] was “significantly increase HO-1 expression and GPx activity”. The “Nrf2 translocation into the nucleus” value ([3]; vs pathological control group) was “significantly increase the Nrf2 translocation”, the “COX-2 expression level (renal)” value ([4]; FIG. 9A-B) was “restored to levels similar to the normal control group” and the “PGE2 expression level (serum)” value ([4]; FIG. 9C) was “restored to levels similar to the normal control group”. The “fibrosis of the renal tissue (Sirius red staining)” value ([5]; 28th day, FIG. 4) was “suppress fibrosis of the renal tissue, similar to the normal control group”, the “collagen IV expression in glomerular tissue (IHC)” value ([5]; FIG. 3) was “significantly suppress collagen IV expression in glomerular tissue” and the “urine protein concentration (urine protein/urine creatinine ratio)” value ([6]; 7th to 28th day, FIG. 1A) was “almost be completely suppressed”. The “blood urea nitrogen (BUN)” value ([6]; 28th day, FIG. 1B) was “lower BUN and Cr concentration, similar to that of the normal control group”, the “serum creatinine (Cr)” value ([6]; 28th day, FIG. 1C) was “lower BUN and Cr concentration, similar to that of the normal control group” and the “superoxide anion (ROS) in serum” value ([7]; FIG. 5A) was “suppressed exhibition of such phenomenon”. The “superoxide anion (ROS) in kidney tissue” value ([7]; FIG. 5B) was “suppressed exhibition of such phenomenon”, the “apoptosis in kidney tissues (TUNEL staining)” value [8] was “can be suppressed by administration of osthole” and the “NF-κB p65 nuclear translocation in kidney tissues” value [9] was “can be suppressed by osthole”. For the same molecule, the “disease progression of glomerular sclerosis (histopathology)” value [10] was “significantly suppress the disease progression of glomerular sclerosis”.
